Measurements from patent US12427152B2, “HDAC inhibitors for use with NK cell based therapies” (Viracta Therapeutics, Inc., priority 2016, dated 2025).

How the values were obtained:
HDAC [1] = assay: Immunoblot for acetyl-lysine 9 on Histone H3 (HDAC activity) in PC3 cells; assay type: cell-based; settings: 657 nM, 2.5 h
Experimental: (§1) VRx-3996 was tested for its ability to inhibit HDAC activity in PC3 (prostate) and MDA-MB-231 (triple negative breast cancer) carcinoma cells. Cells were exposed to for 2.5 h to VRx-3996 (657 nM), or DMSO prior to being examined for the presence of acetyl-lysine 9 on Histone H3 by immunoblot.

HDAC [2] = assay: Immunoblot for acetyl-lysine 9 on Histone H3 (HDAC activity) in MDA-MB-231 cells; assay type: cell-based; settings: 657 nM, 2.5 h
Experimental: as §1

PC3 cells [3] = assay: Cell surface phenotype of PC3 cells by flow cytometry; assay type: cell-based; settings: 657 nM, 2.5 h/day, 4 days
Experimental: (§2) After treatment with DMSO (vehicle) or VRx-3996, PC3 or […] cells were analyzed for their cell surface phenotype. Cells were exposed to CHR-3996 daily (657 nM, 2.5 h/day) or DMSO control for 4 consecutive days; on day 5, cells were examined by flow cytometry for cell-surface expression of proteins associated with immune recognition, stimulation, and inhibition. Overall VRx-3996 led to several changes in both cell lines.

MDA-MB-231 cells = assay: Cell surface phenotype of MDA-MB-231 cells by flow cytometry; assay type: cell-based; settings: 657 nM, 2.5 h/day, 4 days
Experimental: as §2

PC3 cells [4] = assay: NK cell lysis assay (In-111 release) with PC3 cells as target; assay type: cell-based; settings: 657 nM, 2.5 h/day, 4 days, targets on day 5, primary NK cells and HaNK
Experimental: Tumor cell lines PC3 and MDA-MB-231, treated with VRx-3996, were tested for their ability to be killed by different primary NK cells and the NK cell line HaNK (NK cells with a high-affinity Fc receptor which has a mutation at 158V of human FcγRIIIa). PC3 and MDA-MB-231 cells were exposed to DMSO or CHR-3996 daily (657 nM, 2.5 h/day) for 4 consecutive days, prior to being used as targets on day 5 for direct NK killing in an overnight standard In-111 release lysis assay. Primary NK cells from human PBMCs of 2 healthy donors (isolated by negative selection), and NKs rested for 24 h at 37 C° and 5% CO2, or pre-exposed to ALT803 (25 ng/ml) for 24 h, were used. HaNK cells were used 24 h post 10 Gy radiation exposure. NK cells were plated and varying effector to target ratios (E:T) against PC3 cells (FIG. 3) and MDA-MB-231 cells (FIG. 4).

[5] = tested on: PBMCs from patients with metastatic breast cancer; assay: Flow cytometry of immune cell subsets in PBMCs of patients with metastatic breast cancer; assay type: cell-based, human; settings: 657 nM, 2.5 h/day, 2 days
Experimental: Peripheral blood mononuclear cells (PBMCs) from 7 patients with metastatic breast cancer were exposed to VRx-3996 daily (657 nM, 2.5 h/day) or DMSO control for 2 consecutive days and then examined by flow cytometry for different immune cell subsets analyzed: 9 standard immune cell subsets, 114 subsets relating to maturation/function.

[6] = PBMCs of patients with metastatic cancer

MIC-A/B % Pos (PC3 cells [3]; flow cytometry day 5): 48%
MIC-A/B GeoMFI (PC3 cells [3]; flow cytometry day 5): 124
% change MIC-A/B % Pos (PC3 cells [3]; vs DMSO): −20%
% change MIC-A/B GeoMFI (PC3 cells [3]; vs DMSO): 7%
MIC-A/B % Pos (MDA-MB-231 cells; flow cytometry day 5): 94.6%
MIC-A/B GeoMFI (MDA-MB-231 cells; flow cytometry day 5): 2880
% change MIC-A/B % Pos (MDA-MB-231 cells; vs DMSO): 6%
% change MIC-A/B GeoMFI (MDA-MB-231 cells; vs DMSO): 411%
Structure (SMILES): O=C(NO)c1cnc(N2CC3C(C2)C3NCc2ccc3cc(F)ccc3n2)nc1 (centres unmarked) [VRx-3996, 2-(6-{[(6-Fluoroquinolin-2-yl)methyl]amino}-3-azabicyclo[3.1.0]hex-3-yl)-N-hydroxypyrimidine-5-carboxamide]
Histone H3 deacetylation (acetyl-lysine 9 on Histone H3) (HDAC [1]): inhibits Histone H3 deacetylation
Histone H3 deacetylation (acetyl-lysine 9 on Histone H3) (HDAC [2]): inhibits Histone H3 deacetylation
CD155 % Pos (PC3 cells [3]; flow cytometry day 5): 95.9%
CD155 GeoMFI (PC3 cells [3]; flow cytometry day 5): 742
EGFR % Pos (PC3 cells [3]; flow cytometry day 5): 75.6%
EGFR GeoMFI (PC3 cells [3]; flow cytometry day 5): 291
Fas % Pos (PC3 cells [3]; flow cytometry day 5): 35.3%
Fas GeoMFI (PC3 cells [3]; flow cytometry day 5): 79
HLA-A, B, C % Pos (PC3 cells [3]; flow cytometry day 5): 94.4%
HLA-A, B, C GeoMFI (PC3 cells [3]; flow cytometry day 5): 1198
ICAM-1 % Pos (PC3 cells [3]; flow cytometry day 5): 66.8%
ICAM-1 GeoMFI (PC3 cells [3]; flow cytometry day 5): 129
PD-L1 % Pos (PC3 cells [3]; flow cytometry day 5): 28%
PD-L1 GeoMFI (PC3 cells [3]; flow cytometry day 5): 43
ULBP-3 % Pos (PC3 cells [3]; flow cytometry day 5): 7.6%
ULBP-3 GeoMFI (PC3 cells [3]; flow cytometry day 5): 31
% change CD155 % Pos (PC3 cells [3]; vs DMSO): <5%
% change CD155 GeoMFI (PC3 cells [3]; vs DMSO): 50%
% change EGFR % Pos (PC3 cells [3]; vs DMSO): −15%
% change EGFR GeoMFI (PC3 cells [3]; vs DMSO): −33%
% change Fas % Pos (PC3 cells [3]; vs DMSO): −32%
% change Fas GeoMFI (PC3 cells [3]; vs DMSO): −7%
% change HLA-A, B, C % Pos (PC3 cells [3]; vs DMSO): <5%
% change HLA-A, B, C GeoMFI (PC3 cells [3]; vs DMSO): 77%
% change ICAM-1 % Pos (PC3 cells [3]; vs DMSO): <5%
% change ICAM-1 GeoMFI (PC3 cells [3]; vs DMSO): 32%
% change PD-L1 % Pos (PC3 cells [3]; vs DMSO): −39%
% change PD-L1 GeoMFI (PC3 cells [3]; vs DMSO): −27%
% change ULBP-3 % Pos (PC3 cells [3]; vs DMSO): −88%
% change ULBP-3 GeoMFI (PC3 cells [3]; vs DMSO): −75%
CD122 % Pos (MDA-MB-231 cells; flow cytometry day 5): 81.9%
CD122 GeoMFI (MDA-MB-231 cells; flow cytometry day 5): 735
CD155 % Pos (MDA-MB-231 cells; flow cytometry day 5): 96.1%
CD155 GeoMFI (MDA-MB-231 cells; flow cytometry day 5): 2937
EGFR % Pos (MDA-MB-231 cells; flow cytometry day 5): 81.9%
EGFR GeoMFI (MDA-MB-231 cells; flow cytometry day 5): 735
Fas % Pos (MDA-MB-231 cells; flow cytometry day 5): 27.3%
Fas GeoMFI (MDA-MB-231 cells; flow cytometry day 5): 190
HLA-A, B, C % Pos (MDA-MB-231 cells; flow cytometry day 5): 96.2%
HLA-A, B, C GeoMFI (MDA-MB-231 cells; flow cytometry day 5): 2470
ICAM-1 % Pos (MDA-MB-231 cells; flow cytometry day 5): 96.2%
ICAM-1 GeoMFI (MDA-MB-231 cells; flow cytometry day 5): 8554
PD-L1 % Pos (MDA-MB-231 cells; flow cytometry day 5): 80%
PD-L1 GeoMFI (MDA-MB-231 cells; flow cytometry day 5): 303
TRAIL-R1(DR4) % Pos (MDA-MB-231 cells; flow cytometry day 5): 27.1%
TRAIL-R1(DR4) GeoMFI (MDA-MB-231 cells; flow cytometry day 5): 107
ULBP-2/5/6 % Pos (MDA-MB-231 cells; flow cytometry day 5): 75.9%
ULBP-2/5/6 GeoMFI (MDA-MB-231 cells; flow cytometry day 5): 365
% change CD122 % Pos (MDA-MB-231 cells; vs DMSO): −10%
% change CD122 GeoMFI (MDA-MB-231 cells; vs DMSO): 119%
% change CD155 % Pos (MDA-MB-231 cells; vs DMSO): <5%
% change CD155 GeoMFI (MDA-MB-231 cells; vs DMSO): 197%
% change EGFR % Pos (MDA-MB-231 cells; vs DMSO): −10%
% change EGFR GeoMFI (MDA-MB-231 cells; vs DMSO): 119%
% change Fas % Pos (MDA-MB-231 cells; vs DMSO): −23%
% change Fas GeoMFI (MDA-MB-231 cells; vs DMSO): 184%
% change HLA-A, B, C % Pos (MDA-MB-231 cells; vs DMSO): <5%
% change HLA-A, B, C GeoMFI (MDA-MB-231 cells; vs DMSO): 142%
% change ICAM-1 % Pos (MDA-MB-231 cells; vs DMSO): <5%
% change ICAM-1 GeoMFI (MDA-MB-231 cells; vs DMSO): 546%
% change PD-L1 % Pos (MDA-MB-231 cells; vs DMSO): <5%
% change PD-L1 GeoMFI (MDA-MB-231 cells; vs DMSO): 175%
% change TRAIL-R1(DR4) % Pos (MDA-MB-231 cells; vs DMSO): 293%
% change TRAIL-R1(DR4) GeoMFI (MDA-MB-231 cells; vs DMSO): 1290%
% change ULBP-2/5/6 % Pos (MDA-MB-231 cells; vs DMSO): 6.5%
% change ULBP-2/5/6 GeoMFI (MDA-MB-231 cells; vs DMSO): 244%
Sensitization of PC3 cells to NK lysis (PC3 cells [4]): Sensitizes PC3 Cells to NK Lysis
FoxP3+ regulatory T cells in PBMCs [5, 6]: Reduces
FoxP3 in T regulatory subsets (FACS, FIGS. 5A and 5B) [5, 6]: reduced
B cell median frequency ([5]; PBMCs, 7 patients): 6.37 % of PBMC
B cells PDL1+ median frequency ([5]; PBMCs, 7 patients): 0.55 % of PBMC
CD4 CM PD1+ median frequency ([5]; PBMCs, 7 patients): 3.24 % of PBMC
CD4 median frequency ([5]; PBMCs, 7 patients): 42.36 % of PBMC
CD8 Tim3+ median frequency ([5]; PBMCs, 7 patients): 0.06 % of PBMC
CD8 median frequency ([5]; PBMCs, 7 patients): 17.67 % of PBMC
CD8 naive median frequency ([5]; PBMCs, 7 patients): 4.99 % of PBMC
CD49d neg Treg median frequency ([5]; PBMCs, 7 patients): 5.66 % of CD4
ICOS+ CD4 median frequency ([5]; PBMCs, 7 patients): 1.26 % of PBMC
ICOS+ PD-1+ CD4 median frequency ([5]; PBMCs, 7 patients): 0.5 % of PBMC
ICOS+ Treg median frequency ([5]; PBMCs, 7 patients): 2.31 % of CD4
MDSC CD16+ median frequency ([5]; PBMCs, 7 patients): 2.19 % of PBMC
MDSC median frequency ([5]; PBMCs, 7 patients): 5.32 % of PBMC
NK median frequency ([5]; PBMCs, 7 patients): 3.46 % of PBMC
NKT PD1+ median frequency ([5]; PBMCs, 7 patients): 0.75 % of PBMC
NKT median frequency ([5]; PBMCs, 7 patients): 4.24 % of PBMC
PD-1+ Treg median frequency ([5]; PBMCs, 7 patients): 2.31 % of CD4
Total Treg median frequency ([5]; PBMCs, 7 patients): 9.39 % of CD4
Treg CD49d neg median frequency ([5]; PBMCs, 7 patients): 0.27 % of PBMC
Treg ICOS+ median frequency ([5]; PBMCs, 7 patients): 0.14 % of PBMC
Treg median frequency ([5]; PBMCs, 7 patients): 0.47 % of PBMC
cDC median frequency ([5]; PBMCs, 7 patients): 0.11 % of PBMC
dnMDSC PDL1+ median frequency ([5]; PBMCs, 7 patients): 0.07 % of PBMC
dnMDSC median frequency ([5]; PBMCs, 7 patients): 0.36 % of PBMC
mMDSC CD16+ median frequency ([5]; PBMCs, 7 patients): 2.08 % of PBMC
mMDSC median frequency ([5]; PBMCs, 7 patients): 4.15 % of PBMC
pDC median frequency ([5]; PBMCs, 7 patients): <0.01 % of PBMC
